Laboratory results as given in US7622551B2, “Leukocyte stimulating peptides” (POSCO, priority 2004, dated 2009).
Where no end group is shown, it is not given here.

Experiments:
[1] = tested on: differentiated HL60 cells; experiment: Arachidonic acid (AA) release in [3H]AA-labeled dHL60 cells; assay type: cell-based, human; conditions: for Folds of increase (% of total), arachidonic acid release: differentiated HL60 cells, 10 μM of peptide; for Inhibition of AA release induced by P14, P18, P21, P24 / AA release stimulating activity (in words): dHL60 cells; for Inhibition of AA release induced by P14, P18, P21, P24: 1 μM peptide, MAFP, AACOCF3, BEL at 10 μM; for AA release stimulating activity (in words): 10 μM
Description: (§1) U937 (human histiocytic lymphoma cells), HL60 (human promyelocytic leukemia cells), Raw 264.7 (mouse macrophage), Jurkat (human acute T cell leukemia), PC12 (rat adrenal pheochromocytoma cells), 3Y1 (Rat embryonic fibroblasts), 3T3L1 (preadipocytes), and NCI-H292 (human mucoepidermoid pulmonary carcinoma cells) were obtained from the American Type Culture Collection (Rockville, Md.) and maintained as recommended. FPR- or FPRL1 expressing RBL-2H3 cells were cultured as described previously (He et al. J. Immunol. 2000. 165: 4598-4605). Cells were maintained at about 1×10^6 cells/ml under standard incubator conditions (humidified atmosphere, 95% air, 5% CO2, at 37° C.). HL60 cells were induced to differentiate into the granulocyte phenotype by adding dimethylsulfoxide (DMSO) (final concentration 1.25%, v/v) for 4 days to the culture medium, as described previously (Itoh et al. Blood. 1998. 92: 1432-1441).
For the initial screening of the PS-SPCLs, we measured the AA release stimulating activity of each peptide pool. Cultured dHL60 cells (10^7 cells/ml) were pre-labeled with 0.5 μCi/ml of (^3H)-AA in RPMI 1640 medium containing 10% FBS for 90 min at 37° C. in a humidified incubator supplied with 95% air and 5% CO2, as described previously (Bae et al. J. Immunol. 2000. 164: 4089-4096). The labeled cells were then washed twice with serum-free RPMI 1640 and incubated in RPMI 1640 medium containing 0.1% fatty acid-free BSA for 15 min at 37° C. After discarding the medium, the cells were stimulated with various concentrations of peptide for the indicated times. Radioactivity in the medium and of collected cells was determined with a liquid scintillation counter. When investigating the effects of inhibitors, cells were preincubated with the indicated concentrations of each inhibitor or vehicle for 15 min prior to stimulation.

[2] = tested on: differentiated HL60 cells; experiment: [Ca2+]i increase in fura-2 loaded dHL60 cells; assay type: cell-based, human; conditions: for [Ca^2+]i: differentiated HL60 cells, fura-2, 1 μM of peptide; for Concentration of maximal activity, [Ca^2+]i increase: data not shown
Description: as §1
(§2) The level of [Ca^2+]i was determined using Grynkiewicz's method using fura-2/AM (Grynkiewicz et al. J. Biol. Chem. 1985. 260: 3440-3550). Briefly, prepared cells were incubated with 3 μM of fura-2/AM at 37° C. for 50 min in serum-free RPMI 1640 medium under continuous stirring. 2×10^6 cells were aliquoted for each assay in Ca^2+ free Locke's solution (154 mM NaCl, 5.6 mM KCl, 1.2 mM MgCl2, 5 mM HEPES, pH 7.3, 10 mM glucose, and 0.2 mM EGTA). Fluorescence changes were measured at the dual excitation wavelength of 340 nm and 380 nm, and the calculated fluorescence ratio was translated into [Ca^2+]i.

[3] = tested on: undifferentiated HL60 cells; experiment: [Ca2+]i increase in undifferentiated HL60 cells; assay type: cell-based, human; conditions: peptides 10 μM (FIG. 8)
Description: as §1, §2

[4] = tested on: human neutrophils; experiment: Superoxide generation (cytochrome c reduction) in human neutrophils; assay type: cell-based
Description: Peripheral blood leukocyte concentrates were donated by the Ulsan Red Cross Blood Center (Ulsan, Korea). PBMCs were separated on a Histopaque-1077 gradient. After two washings with HBSS without Ca^2+ and Mg^2+, the PBMCs were suspended in 10% FBS containing RPMI and incubated for 60 min at 37° C. to let the monocytes attach to the culture dish. Cells were washed 5 times with warmed RPMI medium to remove lymphocytes, and then the attached monocytes were collected, as described previously (Bae et al. J. Leukoc. Biol. 1999. 65: 241-248). Human neutrophils were isolated according to standard procedures; i.e., dextran sedimentation, hypotonic lysis of erythrocytes, and using a medium lymphocyte separation gradient, as described previously (Seo et al. J. Immunol. 1997. 158: 1895-1901). Isolated human leukocytes were then used promptly.
We determined superoxide anion generation by measuring cytochrome c reduction using a microtiter 96 well plate ELISA reader (Bio-Tekinstruments, EL312e, Winooski, Vt.) as described previously (Bae et al. Blood. 2001. 97: 2854-2862). Human neutrophils (1×10^6 cells/100 μl of RPMI 1640 medium per well of a 96-well plate) were preincubated with 50 μM of cytochrome c at 37° C. for 1 min and then incubated with the indicated peptide concentrations. Superoxide generation was determined from change in light absorption at 550 nm over 5 minutes at 1 min intervals.

[5] = tested on: human monocytes; experiment: Chemotaxis assay (modified Boyden chamber), monocytes; assay type: cell-based; conditions: FIG. 6B; control peptide at concentrations less than 10 μM
Description: FIGS. 6A and 6B show chemotactic effect of peptides. Assays were performed using a modified Boyden chamber assay, as described in the Examples. Isolated human neutrophils (A) or monocytes (B) (1×10^6 cells/ml in serum free RPMI) were added to the upper wells of a 96-well chemotaxis chamber and migration across a 3 μm pore size (5 μm for monocytes) polycarbonate membrane was assessed after 2 hrs incubation at 37° C. The numbers of migrated cells were determined by counting them in a high power field (400×). Results are presented as means±S.E. of three independent experiments each performed in duplicate.
Chemotaxis assays were performed using multiwell chambers (Neuroprobe Inc., Gaithersburg, Md.) (Bae et al. Blood. 2001. 97: 2854-2862). Briefly, prepared human monocytes were suspended in RPMI at a concentration of 1×10^6 cells/ml, and 25 μl of the suspension was then placed onto the upper well of a chamber separated by a 5 μm polyhydrocarbon filter (3 μm pores size not polyvinylpyrrolidone coated, as is needed for neutrophils) from peptides or N-formyl-methionyl-leucyl-phenylalanine (fMLF) in the lower well. After incubation for 2 hours (90 minutes for neutrophils) at 37° C., non-migrated cells were removed by scraping, and cells that migrated across the filter were dehydrated, fixed, and stained with hematoxylin (Sigma, St. Louis, Mo.). Stained cells were counted in five randomly chosen high power fields (HPF) (400×) (Bae et al. Blood. 2001. 97: 2854-2862).

Molecule: KKHHKM-NH2 [Peptide P1]
- Folds of increase (% of total), arachidonic acid release [1]: 1.25 ± 0.168 folds
- [Ca^2+]i increase (in words) ([2]; dHL60 cells, 1 μM): did not affect
- [Ca^2+]i [2]: 0 nM

Molecule: CCCCC[C@H](O)/C=C/C=C\C=C\C=C\[C@@H](O)[C@@H](O)CCCC(=O)O [lipoxin A4, reference compound]
- [Ca^2+]i increase in undifferentiated HL60 cells [3]: did not affect

Molecule: CC(=O)OCOC(=O)CN(CC(=O)OCOC(C)=O)c1ccccc1OCCOc1ccccc1N(CC(=O)OCOC(C)=O)CC(=O)OCOC(C)=O [BAPTA/AM, reference compound]
- Inhibition of AA release induced by P14, P18, P21, P24 [1]: inhibited

Molecule: RKYYVM-NH2 [Peptide P17]
- AA release stimulating activity (in words) [1]: most potent
- Folds of increase (% of total), arachidonic acid release [1]: 2.82 ± 0.210 folds
- Concentration of maximal activity, [Ca^2+]i increase ([2]; dHL60 cells): approximately 3 μM
- [Ca^2+]i [2]: 143 ± 10.2 nM
- Superoxide generation (in words) [4]: stimulate superoxide generation in a concentration-dependent manner
- Cellular chemotaxis in human monocytes (in words) [5]: induced cellular chemotaxis

Molecule: KKYYYM-NH2 [Peptide P12]
- AA release stimulating activity (in words) [1]: most potent
- Folds of increase (% of total), arachidonic acid release [1]: 2.58 ± 0.168 folds
- Concentration of maximal activity, [Ca^2+]i increase ([2]; dHL60 cells): approximately 3 μM
- [Ca^2+]i [2]: 153 ± 13.2 nM

Molecule: CCCCC/C=C\C/C=C\C/C=C\C/C=C\CCCC(=O)C(F)(F)F [AACOCF3, reference compound]
- Inhibition of AA release induced by P14, P18, P21, P24 [1]: almost completely prevented

Molecule: KKYHVM-NH2 [Peptide P8]
- Folds of increase (% of total), arachidonic acid release [1]: 1.30 ± 0.170 folds
- [Ca^2+]i [2]: 31 ± 3.5 nM

Molecule: KKHYKM-NH2 [Peptide P3]
- Folds of increase (% of total), arachidonic acid release [1]: 1.45 ± 0.306 folds
- [Ca^2+]i [2]: 8 ± 3.2 nM

Molecule: CSCC[C@H](NC=O)C(=O)N[C@@H](CC(C)C)C(=O)N[C@@H](Cc1ccccc1)C(=O)O [fMLF, N-formyl-methionyl-leucyl-phenylalanine, reference compound]
- Superoxide production ([4]; 1 μM of peptide, cytochrome c reduction): 26.5 ± 1.32 nmole/10^6 cells
- [Ca^2+]i increase in undifferentiated HL60 cells [3]: did not affect

Molecule: RKYYPM-NH2 [Peptide P16]
- AA release stimulating activity (in words) [1]: most potent
- Folds of increase (% of total), arachidonic acid release [1]: 2.57 ± 0.450 folds
- Concentration of maximal activity, [Ca^2+]i increase ([2]; dHL60 cells): approximately 3 μM
- [Ca^2+]i [2]: 135 ± 21.4 nM

Molecule: KKHHVM-NH2 [Peptide P2]
- Folds of increase (% of total), arachidonic acid release [1]: 1.23 ± 0.153 folds
- [Ca^2+]i [2]: 0 nM

Molecule: KKYYKM-NH2 [Peptide P9]
- Folds of increase (% of total), arachidonic acid release [1]: 1.49 ± 0.268 folds
- [Ca^2+]i [2]: 85 ± 15.8 nM

Molecule: KKYHKM-NH2 [Peptide P7]
- Folds of increase (% of total), arachidonic acid release [1]: 1.42 ± 0.226 folds
- [Ca^2+]i increase (in words) ([2]; dHL60 cells, 1 μM): did not affect
- [Ca^2+]i [2]: 0 nM

Molecule: Nc1ncnc2c1ncn2[C@@H]1O[C@H](COP(=O)(O)OP(=O)(O)OP(=O)(O)O)[C@@H](O)[C@H]1O [ATP, reference compound]
- [Ca^2+]i increase (in words) ([2]; dHL60 cells, 500 μM of ATP (FIG. 4)): stimulated
- Effect of PTX on agonist-induced [Ca^2+]i rise ([2]; dHL60 cells, PTX 150 ng/ml for 20 hr): not inhibited

Molecule: O=C1O/C(=C/Br)CCC1c1cccc2ccccc12 (stereo not shown) [BEL, reference compound]
- Inhibition of AA release induced by P14, P18, P21, P24 [1]: did not interfere

Molecule: KKYYPM-NH2 [Peptide P10]
- AA release stimulating activity (in words) [1]: most potent
- Folds of increase (% of total), arachidonic acid release [1]: 2.27 ± 0.199 folds
- Concentration of maximal activity, [Ca^2+]i increase ([2]; dHL60 cells): approximately 3 μM
- [Ca^2+]i [2]: 152 ± 28.7 nM

Molecule: MKYYPM-NH2 [Peptide P22]
- AA release stimulating activity (in words) [1]: most potent
- Folds of increase (% of total), arachidonic acid release [1]: 2.95 ± 0.668 folds
- Concentration of maximal activity, [Ca^2+]i increase ([2]; dHL60 cells): approximately 3 μM
- [Ca^2+]i [2]: 168 ± 21.6 nM

Molecule: KKHYVM-NH2 [Peptide P5]
- Folds of increase (% of total), arachidonic acid release [1]: 1.68 ± 0.390 folds
- [Ca^2+]i [2]: 34 ± 9.5 nM

Molecule: MKYHVM-NH2 [Peptide P20]
- AA release stimulating activity (in words) [1]: most potent
- Folds of increase (% of total), arachidonic acid release [1]: 2.55 ± 0.271 folds
- [Ca^2+]i [2]: 155 ± 16.3 nM

Molecule: RKYHKM-NH2 [Peptide P13]
- Folds of increase (% of total), arachidonic acid release [1]: 1.47 ± 0.220 folds
- [Ca^2+]i [2]: 10 ± 4.2 nM

Molecule: KKHYYM-NH2 [Peptide P6]
- Folds of increase (% of total), arachidonic acid release [1]: 1.52 ± 0.296 folds
- [Ca^2+]i [2]: 50 ± 11.7 nM

Molecule: MKYHKM-NH2 [Peptide P19]
- Folds of increase (% of total), arachidonic acid release [1]: 1.68 ± 0.221 folds
- [Ca^2+]i [2]: 13 ± 3.0 nM

Molecule: MKYYVM-NH2 [Peptide P23]
- AA release stimulating activity (in words) [1]: most potent
- Folds of increase (% of total), arachidonic acid release [1]: 3.05 ± 0.401 folds
- Concentration of maximal activity, [Ca^2+]i increase ([2]; dHL60 cells): approximately 3 μM
- [Ca^2+]i [2]: 153 ± 13.2 nM

Molecule: KKHYPM-NH2 [Peptide P4]
- Folds of increase (% of total), arachidonic acid release [1]: 1.41 ± 0.247 folds
- [Ca^2+]i [2]: 14 ± 4.1 nM

Molecule: KKYYVM-NH2 [Peptide P11]
- AA release stimulating activity (in words) [1]: most potent
- Folds of increase (% of total), arachidonic acid release [1]: 2.49 ± 0.023 folds
- Concentration of maximal activity, [Ca^2+]i increase ([2]; dHL60 cells): approximately 3 μM
- [Ca^2+]i [2]: 158 ± 25.3 nM

Molecule: RKYYKM-NH2 [Peptide P15]
- Folds of increase (% of total), arachidonic acid release [1]: 1.71 ± 0.214 folds
- [Ca^2+]i [2]: 77 ± 12.1 nM
